Measurements from PubChem BioAssay AID330 (DTP/NCI, 2004).
Values joined by “and” are separate entries in the source; they are usually repeats but may differ in a detail not shown here. Equal entries are not always repeated. Inconclusive results and toxic doses are left out. The calls were made as follows: active = survival T/C of 150% or more; inactive = T/C below 125% in these data. Square brackets hold non-standard residues; d marks the D form. Peptide text beside a SMILES is read from it. * marks the point of attachment. Cbz = O=C(OCc1ccccc1)*; Nva = CCC[CH](N)C(=O)O

System: P388 leukemia ip, CD2F1 mice, survival T/C
Assay: NCI In Vivo Anticancer Drug Screen. Data for tumor model P388 Leukemia (intraperitoneal) in CD2F1 (CDF1) mice
Settings: endpoint: median survival time, higher = longer survival
Procedure, shortened: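 Mice carrying the transplanted tumor received test compound or vehicle. Survival was recorded in each group, and the value is the treated-group measurement divided by that of the vehicle-treated control group.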

[1] = dose: 50.0 mg/kg/injection, schedule: Q01DX009 (ip), vehicle: Klucel (hydroxypropylcellulose) (HPC)
[2] = dose: 100.0 mg/kg/injection, schedule: Q01DX009 (ip), vehicle: Klucel (hydroxypropylcellulose) (HPC)
[3] = dose: 200.0 mg/kg/injection, schedule: Q01DX009 (ip), vehicle: Klucel (hydroxypropylcellulose) (HPC)
[4] = dose: 60.0 mg/kg/injection, schedule: Q01DX005 (ip), vehicle: saline with Tween-80
[5] = dose: 120.0 mg/kg/injection, schedule: Q01DX005 (ip), vehicle: saline with Tween-80
[6] = dose: 50.0 mg/kg/injection, schedule: Q01DX009 (ip), vehicle: saline with Tween-80
[7] = dose: 100.0 mg/kg/injection, schedule: Q01DX009 (ip), vehicle: saline with Tween-80
[8] = dose: 200.0 mg/kg/injection, schedule: Q01DX009 (ip), vehicle: saline with Tween-80
[9] = dose: 50.0 mg/kg/injection, schedule: Q01DX005 (ip), vehicle: saline with Tween-80
[10] = dose: 100.0 mg/kg/injection, schedule: Q01DX005 (ip), vehicle: saline with Tween-80
[11] = dose: 200.0 mg/kg/injection, schedule: Q01DX005 (ip), vehicle: saline with Tween-80
[12] = dose: 60.0 mg/kg/injection, schedule: Q01DX005 (ip), vehicle: Klucel (hydroxypropylcellulose) (HPC)
[13] = dose: 120.0 mg/kg/injection, schedule: Q01DX005 (ip), vehicle: Klucel (hydroxypropylcellulose) (HPC)
[14] = dose: 240.0 mg/kg/injection, schedule: Q01DX005 (ip), vehicle: Klucel (hydroxypropylcellulose) (HPC)
[15] = dose: 240.0 mg/kg/injection, schedule: Q01DX005 (ip), vehicle: saline with Tween-80
[16] = dose: 100.0 mg/kg/injection, schedule: Q01DX001 (ip), vehicle: Klucel (hydroxypropylcellulose) (HPC)
[17] = dose: 200.0 mg/kg/injection, schedule: Q01DX001 (ip), vehicle: Klucel (hydroxypropylcellulose) (HPC)

Measured: T/C

CCCCN1C(=O)c2ccc(N)cc2C1=O
inactive: [1] 100 % of control | [2] 97 % of control | [3] 110 % of control

CCC(c1ccc(O)cc1)C(CC)c1ccc(O)c(CN(C)C)c1 (centres undefined)
inactive: dose: 15.0 mg/kg/injection, schedule: Q01DX005 (ip), vehicle: saline with Tween-80 100 % of control | dose: 30.0 mg/kg/injection, schedule: Q01DX005 (ip), vehicle: saline with Tween-80 100 % of control | [4] 96 % of control | [5] 94 % of control

CNC(=O)/C=C/C1=CN2C(=O)c3ccc(C)c(O)c3NC(OC)C2C1 (centres undefined)
inactive: dose: 0.01 mg/kg/injection, schedule: Q01DX009 (ip), vehicle: suspension in saline 102 % of control and 115 % of control | dose: 0.02 mg/kg/injection, schedule: Q01DX009 (ip), vehicle: suspension in saline 116 % of control | dose: 0.05 mg/kg/injection, schedule: Q01DX009 (ip), vehicle: saline 121 % of control | dose: 0.05 mg/kg/injection, schedule: Q01DX009 (ip), vehicle: suspension in saline 120 % of control | dose: 0.2 mg/kg/injection, schedule: Q01DX009 (ip), vehicle: saline 92 % of control | dose: 0.2 mg/kg/injection, schedule: Q01DX009 (ip), vehicle: suspension in saline 97 % of control

CC(C)CSc1nc2ccc(N=Cc3ccccc3O)cc2s1
inactive: [1] 94 % of control | [2] 92 % of control | [3] 89 % of control

CCOC(=O)c1ccc(NC(=NC(C)(C)C)C(C)C)cc1
inactive: [6] 96 % of control | [7] 101 % of control | [8] 91 % of control

O=C1CCC(=O)N2c3ccccc3-c3ccccc3N12
inactive: [6] 95 % of control | [7] 93 % of control | [8] 93 % of control

Cc1ccc(S(=O)(=O)/C=C/C(=O)c2ccco2)cc1
inactive: dose: 100.0 mg/kg/injection, schedule: Q04DX002 (ip), vehicle: saline 108 % of control | dose: 200.0 mg/kg/injection, schedule: Q04DX002 (ip), vehicle: saline 112 % of control | dose: 400.0 mg/kg/injection, schedule: Q04DX002 (ip), vehicle: saline 100 % of control

C(CCOCC1CO1)COCC1CO1 (centres undefined)
inactive: dose: 25.0 mg/kg/injection, schedule: Q01DX009 (ip), vehicle: Klucel (hydroxypropylcellulose) (HPC) 108 % of control and 111 % of control | [1] 110 % of control | [2] 117 % of control

CC[n+]1c(/C=C/c2ccc(N(C)C)cc2)ccc2ccccc21
inactive: dose: 0.19 mg/kg/injection, schedule: Q01DX009 (ip), vehicle: saline 100 % of control | dose: 0.39 mg/kg/injection, schedule: Q01DX009 (ip), vehicle: saline 86 % of control | dose: 0.78 mg/kg/injection, schedule: Q01DX009 (ip), vehicle: saline 114 % of control | dose: 1.56 mg/kg/injection, schedule: Q01DX009 (ip), vehicle: saline 96 % of control

CCOc1ccc(CC)cc1Cc1ccc(OC)cc1
inactive: [9] 108 % of control | [10] 117 % of control | [11] 113 % of control

O=C(Nc1ccc(S(=O)(=O)F)cc1)/C(=C/c1cccc([N+](=O)[O-])c1)c1ccccc1
inactive: [12] 102 % of control | [13] 98 % of control | [14] 94 % of control

NC(=O)C(C(N)=O)=C1C(=O)c2ccccc2C1=O
inactive: [12] 95 % of control | [13] 100 % of control | [14] 99 % of control

Cc1c(C)[n+]([O-])c(-c2ccc(Cl)cc2)n1O
inactive: [6] 100 % of control | [7] 100 % of control | [8] 100 % of control

O=C1c2ccccc2C(=O)N1C[P+](c1ccccc1)(c1ccccc1)c1ccccc1
inactive: dose: 0.78 mg/kg/injection, schedule: Q01DX009 (ip), vehicle: water 102 % of control | dose: 1.56 mg/kg/injection, schedule: Q01DX009 (ip), vehicle: water 106 % of control | dose: 3.13 mg/kg/injection, schedule: Q01DX009 (ip), vehicle: water 106 % of control | dose: 5.56 mg/kg/injection, schedule: Q01DX009 (ip), vehicle: water 123 % of control | dose: 25.0 mg/kg/injection, schedule: Q01DX009 (ip), vehicle: water 98 % of control

CCOC(=O)Cc1ccc(N(CCO)CCO)cc1
inactive: [4] 100 % of control | [5] 103 % of control | [15] 101 % of control

O=c1c2cc3c(cc2c2cccc4ccn1c42)OCO3
inactive: dose: 4.5 mg/kg/injection, schedule: Q01DX009 (ip), vehicle: Klucel (hydroxypropylcellulose) (HPC) 105 % of control | dose: 9.0 mg/kg/injection, schedule: Q01DX009 (ip), vehicle: Klucel (hydroxypropylcellulose) (HPC) 115 % of control | dose: 18.0 mg/kg/injection, schedule: Q01DX009 (ip), vehicle: Klucel (hydroxypropylcellulose) (HPC) 107 % of control | dose: 36.0 mg/kg/injection, schedule: Q01DX009 (ip), vehicle: Klucel (hydroxypropylcellulose) (HPC) 104 % of control

c1ccc2c(NCCCCCCCCCCCCNc3c4ccccc4nc4ccccc34)c3ccccc3nc2c1
inactive: dose: 1.25 mg/kg/injection, schedule: Q## X009 (ip), vehicle: lactic acid 100 % of control and 96 % of control | dose: 2.5 mg/kg/injection, schedule: Q## X009 (ip), vehicle: lactic acid 99 % of control and 92 % of control | dose: 5.0 mg/kg/injection, schedule: Q## X009 (ip), vehicle: lactic acid 107 % of control and 110 % of control

CC(C)C1=CCC2C(=C1)CCC1C(C)(C(N)=O)CCCC21C (centres undefined)
inactive: dose: 100.0 mg/kg/injection, schedule: Q01DX001 (ip), vehicle: saline with Tween-80 100 % of control | dose: 200.0 mg/kg/injection, schedule: Q01DX001 (ip), vehicle: saline with Tween-80 100 % of control | dose: 400.0 mg/kg/injection, schedule: Q01DX001 (ip), vehicle: saline with Tween-80 100 % of control

COC(=O)CCC(NC(=O)C(CCCCN)N(C(=O)OCc1ccccc1)C(=O)OCc1ccccc1)C(=O)OC (centres undefined)
inactive: [9] 101 % of control | [10] 101 % of control | [11] 98 % of control

COC(=O)c1nnn(-c2ccc(Cl)cc2Cl)c1C(=O)c1ccc(Cl)c(Cl)c1
inactive: [4] 101 % of control | [5] 100 % of control | [15] 95 % of control

COc1cccc(-c2nnc(-n3cc(-c4ccccc4)cc3N)s2)c1
inactive: dose: 50.0 mg/kg/injection, schedule: Q01DX001 (ip), vehicle: Klucel (hydroxypropylcellulose) (HPC) 104 % of control | [16] 95 % of control | [17] 89 % of control

CCOC(=O)C1(C(=O)O)CCCN(C(=O)OCc2ccccc2)C1Cc1ccccc1 (centres undefined)
inactive: [16] 99 % of control | [17] 102 % of control | dose: 400.0 mg/kg/injection, schedule: Q01DX001 (ip), vehicle: Klucel (hydroxypropylcellulose) (HPC) 93 % of control

Cc1ccc(OP(=O)(Oc2ccc(C)cc2)Oc2ccc(C)cc2)cc1.Cc1ccc(OP(=O)(Oc2ccc(C)cc2)Oc2ccc(C)cc2)cc1.[Cl][Mn][Cl]
inactive: dose: 100.0 mg/kg/injection, schedule: Q04DX003 (ip), vehicle: Klucel (hydroxypropylcellulose) (HPC) 110 % of control | dose: 200.0 mg/kg/injection, schedule: Q04DX003 (ip), vehicle: Klucel (hydroxypropylcellulose) (HPC) 115 % of control | dose: 400.0 mg/kg/injection, schedule: Q04DX003 (ip), vehicle: Klucel (hydroxypropylcellulose) (HPC) 114 % of control

CCCC(NC(=O)OCc1ccccc1)C(=O)NC(CC(C)C)C(=O)O (centres undefined) (Cbz-[Nva]-Leu-OH; configuration not given here)
inactive: dose: 50.0 mg/kg/injection, schedule: Q01DX005 (ip), vehicle: Klucel (hydroxypropylcellulose) (HPC) 112 % of control | dose: 100.0 mg/kg/injection, schedule: Q01DX005 (ip), vehicle: Klucel (hydroxypropylcellulose) (HPC) 100 % of control | dose: 200.0 mg/kg/injection, schedule: Q01DX005 (ip), vehicle: Klucel (hydroxypropylcellulose) (HPC) 106 % of control

Cc1c2ccncc2c(C)c2c1[nH]c1ccc(OCCN(C)C)cc12
inactive: dose: 6.25 mg/kg/injection, schedule: Q04DX002 (ip), vehicle: water 108 % of control | dose: 12.5 mg/kg/injection, schedule: Q04DX002 (ip), vehicle: water 114 % of control | dose: 25.0 mg/kg/injection, schedule: Q04DX002 (ip), vehicle: water 119 % of control | dose: 50.0 mg/kg/injection, schedule: Q04DX002 (ip), vehicle: water 87 % of control
